Reference: patent US10226482B2, “Copolymer and method for treatment of bacterial infection” (RECCE LIMITED, priority 2014, dated 2019)
Where two headings read alike, the source gives them in different places.

Legend:
MRSA (S. aureus USA300) = experiment: Example 9: curative treatment by tail injection of infected mice; type: in vivo, BALB/c mice; details: 1 to 7 scale (1 alert and healthy); tail injection 24 hours after infection; Example 1 132 mg/Kg, Comparative Example 1 167 mg/Kg, Oxacillin 500 mg/Kg
Procedure: All experiments were prior-audited, and then supervised to comply with international standards to ensure humane treatment of the animals. All experiments were performed in independent laboratories. In particular, all experiments in Examples 6, 7 and 8 were done in USA within pre-designed protocols specifically to research sepsis and bacteremia; protocols were “blinded” of the identity of test-solutions, to both the supervisor and assistants. All infections were in 100 μL, designed to result in approximately 10^7 cfu/mL infection of mouse-blood; mice were type BALB/c—ten per group in each experiment. Mice were assessed by either sacrifice followed by cfu/g count of bacteria within organ(s), or within a 1 to 7 scale of Health Score, including (1; alert and healthy) to (5; sick and very ruffled coat; euthanized) to (7; deceased). The protocols are tabulated, and follow.
Four groups of each 10 mice were infected with S. aureus superbug (S. aureus USA300), and 24 hours afterwards each group treated curatively with respectively: The copolymer of Example 1 (Ex 1) MW 500 at 132 mg/Kg of mouse; copolymer MW 2500 Comparative Example 1 (CE 1) at 167 mg/Kg of mouse; positive control Oxacillin, 500 mg/Kg and negative control saline. FIG. 5 is a chart showing the number of mice culled due to morbidity or mortality.

E. coli = type: cell-based
Procedure: (§1) […] The inoculated test solutions, pH 6.5 to 7.0 were then incubated at 37° C. for sufficient time-periods such that approximately 10^2-10^3 cfu/mL (or 99-99.9% of organisms) killed was achieved.
(§2) A 1 mL aliquot was removed from each respective solution and mixed for one minute with a 1 mL aliquot of Trypticase Soy Broth, then 8 mL of sterile water was added and mixed. Aliquots (1 mL) were then removed from each solution and lawn-inoculated by flooding onto Horse Blood Agar plates for 24-48 hours incubation at 37° C. Visual counts of bacterial growth on the plates were performed.
(§3) Successive generations of E. coli, S. aureus or P. aeruginosa respectively were cultivated via their selection through repeated exposure to a copolymer or Amoxicillin; Organisms surviving treatment were harvested for another cycle of treatment—this process being repeated up to 25 times.

S. aureus = type: cell-based
Procedure: as §1, §2, §3

P. aeruginosa = type: cell-based; details: with broth
Procedure: Three test organisms—E. coli, S. aureus and P. aeruginosa—were respectively inoculated to achieve an approximate concentration 10^6 cfu/mL in the test solutions; the test solutions each comprised 19 g sterile distilled water, 1 mL trypticase soy broth and copolymer (Example 1; 383 mg; 5.4% w/w on acrolein added) or Comparative Example 1; 303 mg; 6.7% w/w solution on acrolein added). The inoculated test solutions, pH 6.5 to 7.0 were then incubated at 37° C. for sufficient time-periods such that approximately 10^2-10^3 cfu/mL (or 99-99.9% of organisms) killed was achieved.
as §2, §3

[1] = 0.35% w/w solution of Amoxicillin

SMILES	Health Score of surviving mice (MRSA (S. aureus USA300))	generation after which bacterial resistance resulted (E. coli; [1])	Number of generations of microbes to resistance (E. coli; with broth)	Number of generations of microbes to resistance (E. coli; without broth)	generation after which bacterial resistance resulted (S. aureus; [1])	Number of generations of microbes to resistance (S. aureus; with broth)	Number of generations of microbes to resistance (S. aureus; without broth)	Number of generations of microbes to resistance (P. aeruginosa)
Cc1onc(-c2ccccc2)c1C(=O)N[C@@H]1C(=O)N2[C@@H]1SC(C)(C)[C@@H]2C(=O)O [Oxacillin]	2.5	–	–	–	–	–	–	–
CC1(C)S[C@@H]2[C@H](NC(=O)[C@H](N)c3ccc(O)cc3)C(=O)N2[C@H]1C(=O)O [Amoxicillin]	–	second	8	2	eighth	10	8	6
